# Laboratory results as given in patent US11241013B2, “Benzimidazole compounds as agricultural chemicals” (REDAG CROP PROTECTION LTD, priority 2017, dated 2022).
# Tests used:
# Type in all cases: cell-based
# [1] = system: Pythium ultimum; test: Amended agar assay; parameters: key to % control Pythium ultimum 2 ppm / % control Pythium ultimum 20 ppm: D: no control detected at this concentration; C: up to 50% control; B: from 50 to 99% control; A: a control of greater than 99%, i.e. no detectable colony growth; conditions: for inhibition of growth at 20 ppm / inhibition of growth at 2 ppm: Globisporangium ultimum; for inhibition of growth at 20 ppm / inhibition of growth at 2 ppm / % control Pythium ultimum 20 ppm / % control Pythium ultimum 2 ppm: amended PDA agar, % reduction in colony growth vs control plate, 18° C.; for EC50 Pythium ultimum: amended agar assay, descending concentrations with 5-fold dilutions
# Procedure: (§1) Testing was carried out on potato dextrose agar (PDA) amended with each compound at a test concentration of typically 20 ppm or 2 ppm. Amended agar was poured into three replicate 9 cm petri dishes. Each replicate dish was inoculated in the centre with a 5 mm agar plug taken from the leading edge of a culture aged between 2 and 7 days old; the age of the culture was dependant on the growth rate of the pathogen being tested. The test pathogens were Pythium ultimum and Phytophthora cinnamomi. Plates were incubated at 18° C. and the diameter of each colony measured before growth on the fastest growing plate reached the plate edge. This varied between 2 and 7 days depending on the growth rate of test pathogens. The % reduction in colony growth compared to the control plate was calculated for each pathogen. The results are provided in Table 1, in which D represents no control detected at this concentration; C represents up to 50% control; B from 50 to 99% control; and A represents a control of greater than 99%, i.e. no detectable colony growth.
# (§2) Alternatively, or in addition, the same assay was conducted at descending test concentrations with 5-fold dilutions typically down to 0.032 ppm though sometimes as low as 0.00026 ppm, and an EC50 (the concentration at which 50% control would be achieved) was determined. The results are provided in Table 1 in which G represents no control detected at 20 ppm, F represents an EC50 of ≥20 ppm and E represents an EC50 of less than 20 ppm.
# [2] = system: Phytophthora cinnamomi; test: Amended agar assay; parameters: key to % control Phytophthora cinnamomi 20 ppm: D: no control detected at this concentration; C: up to 50% control; B: from 50 to 99% control; A: a control of greater than 99%, i.e. no detectable colony growth; conditions: for % control Phytophthora cinnamomi 20 ppm: amended PDA agar, % reduction in colony growth vs control plate, 18° C.; for EC50 Phytophthora spp. (marked *: Phytophthora cinnamomi): values marked *: amended agar assay, descending concentrations with 5-fold dilutions
# Procedure: as §1, §2
# [3] = system: Phytophthora cactorum; test: 96 well plate test; parameters: key: G: no control detected at 20 ppm; F: an EC50 of ≥20 ppm; an EC50 of less than 20 ppm; conditions: 96 well plate assay, agar amended to 20, 2, 0.2 and 0.02 ppm, assessed after 2 to 3 days
# Procedure: (§3) Compounds were screened in 96 well plates with 10 compounds per plate. Each compound was screened using agar amended to 20, 2, 0.2 and 0.02 ppm, with proline at 50 and 10 ppm and 0.2% DMSO used as controls. Each test concentration and standard was replicated twice on a plate. Compounds were screened against Phytophthora cactorum. The agar used in the test is a 1% potato dextrose agar. 1000 spores/mL agar were added to the appropriate agar. A ×10 stock solution in 2% DMSO was produced for each dose i.e. 200, 20, 2 and 0.2 ppm, and 10 μl of this added to the appropriate wells on the plate. An equivalent amount of 2% DMSO and proline stock at 500 and 100 ppm were added for the controls. To each well 90 μl of the appropriate agar spore suspension was added to give the required final well concentrations. Plates were incubated at room temperature (18° C.) and assessed after 2 to 3 days. The amount of pathogen growth in each well was compared to the DMSO controls and an EC50 concentration was calculated. The results are provided in Table 1 in which H represents no control detected at 20 ppm, G represents no control detected at 2 ppm (where the highest test concentration in the assay was 2 ppm), F represents an EC50 of ≥20 ppm, E represents an EC50 of less than 20 ppm.
# [4] = system: Phytophthora cactorum; test: 96 well plate test; parameters: key: H: no control detected at 20 ppm; G: no control detected at 2 ppm (where the highest test concentration in the assay was 2 ppm); F: an EC50 of ≥20 ppm; an EC50 of less than 20 ppm; conditions: 96 well plate assay, agar amended to 20, 2, 0.2 and 0.02 ppm, assessed after 2 to 3 days
# Procedure: as §3
structure (smiles),measurement,setting,value
"Cn1nnnc1-n1c(OCc2cccc(N)n2)nc2ccccc21 [Example 1, 6-(((1-(1-Methyl-1H-tetrazol-5-yl)-1H-benzo[d]imidazol-2-yl)oxy)methyl)pyridin-2-amine]",inhibition of growth at 20 ppm,[1],> 99%
same,% control Phytophthora cinnamomi 20 ppm,[2],B (from 50 to 99% control)
Cn1nnnc1-n1c(OCc2ccccn2)nc2ccc(F)cc21 [Example 20],EC50 Pythium ultimum,[1],E (an EC50 of less than 20 ppm)
same,EC50 Phytophthora spp. (marked *: Phytophthora cinnamomi),[2],E* (an EC50 of less than 20 ppm)
Cn1nnnc1-n1c(OCCc2ccccn2)nc2ccccc21 [Example 25],inhibition of growth at 2 ppm,[1],< 50%
same,EC50 Phytophthora spp. (Phytophthora cactorum),[3],H
Cc1cccnc1-n1c(OCc2ccccn2)nc2ccccc21 [Example 26],% control Pythium ultimum 20 ppm,[1],D
same,% control Phytophthora cinnamomi 20 ppm,[2],D
c1ccc(COc2nc3ccccc3n2-c2ccccn2)nc1 [Example 27],inhibition of growth at 20 ppm,[1],< 50%
same,% control Phytophthora cinnamomi 20 ppm,[2],D
Cn1nnnc1-n1c(OCc2cccc(N)n2)nc2ccc(Br)cc21 [Example 28],EC50 Pythium ultimum,[1],E (an EC50 of less than 20 ppm)
same,EC50 Phytophthora spp. (marked *: Phytophthora cinnamomi),[2],E* (an EC50 of less than 20 ppm)
Cn1nnnc1-n1c(OCc2ccccn2)nc2ccccc21 [Example 29],inhibition of growth at 20 ppm,[1],> 99%
same,EC50 Pythium ultimum,[1],E (an EC50 of less than 20 ppm)
same,% control Phytophthora cinnamomi 20 ppm,[2],"A (a control of greater than 99%, i.e. no detectable colony growth)"
same,EC50 Phytophthora spp. (marked *: Phytophthora cinnamomi),[2],E* (an EC50 of less than 20 ppm)
"Cn1nnnc1-n1c(OCc2cccc(NS(C)(=O)=O)n2)nc2ccccc21 [Example 31, N-(6-(((1-(1-Methyl-1H-tetrazol-5-yl)-1H-benzo[d]imidazol-2-yl)oxy)methyl)pyridin-2-yl)methanesulfonamide]",% control Pythium ultimum 20 ppm,[1],D
same,% control Phytophthora cinnamomi 20 ppm,[2],B (from 50 to 99% control)
"Cn1nnnc1-n1c(OCc2cccc(-c3ccccc3)n2)nc2ccccc21 [Example 32, 1-(1-Methyl-1H-tetrazol-5-yl)-2-((6-phenylpyridin-2-yl)methoxy)-1H-benzo[d]imidazole]",inhibition of growth at 2 ppm,[1],< 50%
same,EC50 Phytophthora spp. (Phytophthora cactorum),[3],H
"Clc1cncnc1-c1c(OCc2ccccn2)[nH]c2ccccc12 [Example 33, 3-(5-Chloropyrimidin-4-yl)-2-(pyridin-2-ylmethoxy)-1H-indole]",inhibition of growth at 20 ppm,[1],< 50%
same,% control Phytophthora cinnamomi 20 ppm,[2],B (from 50 to 99% control)
"Cn1nnnc1-n1c(COc2ccccn2)nc2ccccc21 [Example 34, 1-(1-Methyl-1H-tetrazol-5-yl)-2-((pyridin-2-yloxy)methyl)-1H-benzo[d]imidazole]",% control Pythium ultimum 2 ppm,[1],D
same,EC50 Phytophthora spp. (Phytophthora cactorum),[3],H
Cn1nnnc1-n1c(OCc2cccc(NCc3cccnc3)n2)nc2ccccc21 [Example 41],% control Pythium ultimum 2 ppm,[1],D
same,EC50 Phytophthora spp. (Phytophthora cactorum),[4],G
Cn1nnnc1-n1c(OCc2cccc(NCc3ccc(C#N)cc3)n2)nc2ccccc21 [Example 46],inhibition of growth at 2 ppm,[1],50 to 99%
same,EC50 Phytophthora spp. (Phytophthora cactorum),[4],G
"CN(C)c1cccc(COc2nc3ccccc3n2-c2nnnn2C)n1 [Example 49, N,N-Dimethyl-6-(((1-(1-methyl-1H-tetrazol-5-yl)-1H-benzo[d]imidazol-2-yl)oxy)methyl)pyridin-2-amine]",% control Pythium ultimum 2 ppm,[1],D
same,EC50 Phytophthora spp. (Phytophthora cactorum),[3],H
COc1cccc(COc2nc3ccccc3n2-c2nnnn2C)n1 [Example 52],% control Pythium ultimum 2 ppm,[1],D
same,EC50 Phytophthora spp. (Phytophthora cactorum),[3],H
CC(C)CCOc1cccc(COc2nc3ccccc3n2-c2nnnn2C)n1 [Example 53],% control Pythium ultimum 2 ppm,[1],D
same,EC50 Phytophthora spp. (Phytophthora cactorum),[3],H
CSc1cccc(COc2nc3ccccc3n2-c2nnnn2C)n1 [Example 54],% control Pythium ultimum 2 ppm,[1],D
same,EC50 Phytophthora spp. (Phytophthora cactorum),[3],H
Cn1nnnc1-n1c(OCc2ccc(N)cn2)nc2ccccc21 [Example 57],% control Pythium ultimum 2 ppm,[1],D
same,EC50 Phytophthora spp. (Phytophthora cactorum),[3],H
"Cn1nnnc1-n1c(OCc2cccc(S(C)(=O)=O)n2)nc2ccccc21 [Example 58, 1-(1-Methyl-1H-tetrazol-5-yl)-2-((6-(methylsulfonyl)pyridin-2-yl)methoxy)-1H-benzo[d]imidazole]",% control Pythium ultimum 2 ppm,[1],D
same,EC50 Phytophthora spp. (Phytophthora cactorum),[3],H
Cn1nnnc1-n1c(OCc2ccc3ccccc3n2)nc2c(Cl)cccc21 [Example 67],inhibition of growth at 2 ppm,[1],> 99%
same,EC50 Phytophthora spp. (Phytophthora cactorum),[4],G
COCc1cccc(COc2nc3c(Cl)cccc3n2-c2nnnn2C)n1 [Example 72],inhibition of growth at 2 ppm,[1],< 50%
same,EC50 Phytophthora spp. (Phytophthora cactorum),[3],H
